Assay results taken from patent publication US8410302B2, “Methoxyimino compounds and fungicide composition comprising same” (Kyung Nong Corporation, priority 2007, dated 2013).
Read-outs that look alike come from different tables or passages of the source.

Assays:
[1] = test system: Pyricularia oryzae Carvara KA301; test: whole plant or invertebrate; format: in vivo; details: for pest or weed control at 2 ppm / pest or weed control at 10 ppm / pest or weed control at 50 ppm / pest or weed control at 100 ppm: Pyricularia oryzae, read-out: RCB control value (C.V.); for RCB control value (C.V.): rice blast
Botrytis cinerae = test: Fungicidal activity against cucumber gray mold rot (CGM) disease, control value; format: in vivo
Protocol: Botrytis cinerae, which was isolated from cucumber infected thereby, was inoculated on a potato agar medium (PEC) and cultured under a 12L/12D cycle at 25° C. for 15 days to form spore. The spores were scraped, filtered through a gauze and then suspended in Potato Dextrose broth at a concentration of 1×10^6 spore/ml. The spore suspension was sprayed on a cucumber plant having one leaf. The cucumber plant was held in a humidified room at 20° C. for 3 days. L.A. on a leaf was measured to calculate a C.V.

Phytophthora infestans = test: whole plant or invertebrate; format: in vivo; details: for TLB control value (C.V.): tomato late blight
Puccinia recondita = test: Fungicidal activity against wheat leaf rust (WLR) disease, control value; format: in vivo
Erysiphae graminis = test: Fungicidal activity against barley powdery mildew (BPM) disease, control value; format: in vivo
Rhizoctonia solani AG-1 = test: Fungicidal activity against rice sheath blight (RSB) disease, control value; details: for RSB control value (C.V.): rice sheath blight
[2] = Phytophthora infestans, in Solanum lycopersicum, read-out: TLB control value (C.V.)
[3] = Rhizoctonia solani, AG1, in Oryza sativa, read-out: RSB control value (C.V.)
[4] = Puccinia recondita, 2 ppm, read-out: WLR control value (C.V.)
[5] = Puccinia recondita, 10 ppm, read-out: WLR control value (C.V.)
[6] = Puccinia recondita, 50 ppm, read-out: WLR control value (C.V.)
[7] = 168 h, 2 ppm, read-out: BPM control value (C.V.)
[8] = 168 h, 10 ppm, read-out: BPM control value (C.V.)
[9] = 168 h, 50 ppm, read-out: BPM control value (C.V.)

CNC(=O)/C(=N/OC)c1ccccc1COc1ccc(C)cc1C=C(Cl)Cl [Example 46, (E)-2-(2-((2-(2,2-dichlorovinyl)-4-methylphenoxy)methyl)phenyl)-2-methoxyimino-N-methylacetamide]
pest or weed control at 2 ppm [1]: 95% | pest or weed control at 10 ppm [1]: 100% | pest or weed control at 50 ppm [1]: 100% | pest or weed control at 100 ppm [1]: 100% | pest or weed control at 100 ppm (Botrytis cinerae; Botrytis, 100 ppm, cucumber gray mold rot, read-out: CGM control value (C.V.)): 30% | pest or weed control at 2 ppm (Phytophthora infestans; [2]): 96% | pest or weed control at 10 ppm (Phytophthora infestans; [2]): 100% | pest or weed control at 50 ppm (Phytophthora infestans; [2]): 100% | pest or weed control at 100 ppm (Phytophthora infestans; [2]): 100% | pest or weed control at 2 ppm (Puccinia recondita; 2 ppm, wheat leaf rust, read-out: WLR control value (C.V.)): 100% | pest or weed control at 10 ppm (Puccinia recondita; 10 ppm, wheat leaf rust, read-out: WLR control value (C.V.)): 100% | pest or weed control at 50 ppm (Puccinia recondita; 50 ppm, wheat leaf rust, read-out: WLR control value (C.V.)): 100% | pest or weed control at 100 ppm (Puccinia recondita; 100 ppm, wheat leaf rust, read-out: WLR control value (C.V.)): 100% | pest or weed control at 2 ppm (Erysiphae graminis; Hordeum vulgare, 168 h, 2 ppm, barley powdery mildew, read-out: BPM control value (C.V.)): 100% | pest or weed control at 10 ppm (Erysiphae graminis; Hordeum vulgare, 168 h, 10 ppm, barley powdery mildew, read-out: BPM control value (C.V.)): 100% | pest or weed control at 50 ppm (Erysiphae graminis; Hordeum vulgare, 168 h, 50 ppm, barley powdery mildew, read-out: BPM control value (C.V.)): 100% | pest or weed control at 100 ppm (Erysiphae graminis; Hordeum vulgare, 168 h, 100 ppm, barley powdery mildew, read-out: BPM control value (C.V.)): 100% | pest or weed control at 2 ppm (Rhizoctonia solani AG-1; [3]): 98% | pest or weed control at 10 ppm (Rhizoctonia solani AG-1; [3]): 100% | pest or weed control at 50 ppm (Rhizoctonia solani AG-1; [3]): 100% | pest or weed control at 100 ppm (Rhizoctonia solani AG-1; [3]): 100%

OC(c1ccc(Cl)cc1)(c1cncnc1)c1ccccc1Cl (stereo not shown) [Fenarimol, reference compound]
pest or weed control at 10 ppm [1]: 0% | pest or weed control at 50 ppm [1]: 20% | pest or weed control at 0.4 ppm (Botrytis cinerae; Botrytis, 0.4 ppm, read-out: CGM control value (C.V.)): 7% | pest or weed control at 2 ppm (Botrytis cinerae; Botrytis, 2 ppm, read-out: CGM control value (C.V.)): 7% | pest or weed control at 10 ppm (Botrytis cinerae; Botrytis, 10 ppm, read-out: CGM control value (C.V.)): 7% | pest or weed control at 50 ppm (Botrytis cinerae; Botrytis, 50 ppm, read-out: CGM control value (C.V.)): 30% | pest or weed control at 0.4 ppm (Phytophthora infestans; [2]): 65% | pest or weed control at 2 ppm (Phytophthora infestans; [2]): 75% | pest or weed control at 10 ppm (Phytophthora infestans; [2]): 80% | pest or weed control at 50 ppm (Phytophthora infestans; [2]): 95% | pest or weed control at 0.4 ppm (Puccinia recondita; Puccinia recondita, 0.4 ppm, read-out: WLR control value (C.V.)): 15% | pest or weed control at 2 ppm (Puccinia recondita; [4]): 80% | pest or weed control at 10 ppm (Puccinia recondita; [5]): 100% | pest or weed control at 50 ppm (Puccinia recondita; [6]): 100% | pest or weed control at 0.4 ppm (Erysiphae graminis; 168 h, 0.4 ppm, read-out: BPM control value (C.V.)): 95% | pest or weed control at 2 ppm (Erysiphae graminis; [7]): 100% | pest or weed control at 10 ppm (Erysiphae graminis; [8]): 100% | pest or weed control at 50 ppm (Erysiphae graminis; [9]): 100% | pest or weed control at 0.4 ppm (Rhizoctonia solani AG-1; [3]): 30% | pest or weed control at 2 ppm (Rhizoctonia solani AG-1; [3]): 40% | pest or weed control at 10 ppm (Rhizoctonia solani AG-1; [3]): 85% | pest or weed control at 50 ppm (Rhizoctonia solani AG-1; [3]): 100%

CNC(=O)/C(=N/OC)c1ccccc1COc1cc(Br)ccc1C=C(Br)Br [Example 86, (E)-2-(2-((5-bromo-2-(2,2-dibromovinyl)phenoxy)methyl)phenyl)-2-methoxyimino-N-methylacetamide]
pest or weed control at 2 ppm [1]: 30% | pest or weed control at 10 ppm [1]: 90% | pest or weed control at 50 ppm [1]: 100% | pest or weed control at 100 ppm [1]: 100% | pest or weed control at 100 ppm (Botrytis cinerae; Botrytis, 100 ppm, read-out: CGM control value (C.V.)): 40% | pest or weed control at 2 ppm (Phytophthora infestans; [2]): 70% | pest or weed control at 10 ppm (Phytophthora infestans; [2]): 90% | pest or weed control at 50 ppm (Phytophthora infestans; [2]): 98% | pest or weed control at 100 ppm (Phytophthora infestans; [2]): 100% | pest or weed control at 2 ppm (Puccinia recondita; [4]): 95% | pest or weed control at 10 ppm (Puccinia recondita; [5]): 100% | pest or weed control at 50 ppm (Puccinia recondita; [6]): 100% | pest or weed control at 100 ppm (Puccinia recondita; Puccinia recondita, 100 ppm, read-out: WLR control value (C.V.)): 100% | pest or weed control at 2 ppm (Erysiphae graminis; [7]): 90% | pest or weed control at 10 ppm (Erysiphae graminis; [8]): 100% | pest or weed control at 50 ppm (Erysiphae graminis; [9]): 100% | pest or weed control at 100 ppm (Erysiphae graminis; 168 h, 100 ppm, read-out: BPM control value (C.V.)): 100% | pest or weed control at 2 ppm (Rhizoctonia solani AG-1; [3]): 65% | pest or weed control at 10 ppm (Rhizoctonia solani AG-1; [3]): 98% | pest or weed control at 50 ppm (Rhizoctonia solani AG-1; [3]): 100% | pest or weed control at 100 ppm (Rhizoctonia solani AG-1; [3]): 100%

CNC(=O)/C(=N/OC)c1ccccc1COc1c(OC)ccc(C=C(Cl)Cl)c1Br [Example 52]
RCB control value (C.V.) ([1]; 2 ppm): 70% | RCB control value (C.V.) ([1]; 10 ppm): 100% | RCB control value (C.V.) ([1]; 50 ppm): 100% | RCB control value (C.V.) ([1]; 100 ppm): 100% | CGM control value (C.V.) (Botrytis cinerae; 100 ppm, cucumber gray mold rot): 45% | TLB control value (C.V.) (Phytophthora infestans; 2 ppm): 95% | TLB control value (C.V.) (Phytophthora infestans; 10 ppm): 100% | TLB control value (C.V.) (Phytophthora infestans; 50 ppm): 100% | TLB control value (C.V.) (Phytophthora infestans; 100 ppm): 100% | WLR control value (C.V.) (Puccinia recondita; 2 ppm, wheat leaf rust): 100% | WLR control value (C.V.) (Puccinia recondita; 10 ppm, wheat leaf rust): 100% | WLR control value (C.V.) (Puccinia recondita; 50 ppm, wheat leaf rust): 100% | WLR control value (C.V.) (Puccinia recondita; 100 ppm, wheat leaf rust): 100% | BPM control value (C.V.) (Erysiphae graminis; 2 ppm, barley powdery mildew): 99% | BPM control value (C.V.) (Erysiphae graminis; 10 ppm, barley powdery mildew): 100% | BPM control value (C.V.) (Erysiphae graminis; 50 ppm, barley powdery mildew): 100% | BPM control value (C.V.) (Erysiphae graminis; 100 ppm, barley powdery mildew): 100% | RSB control value (C.V.) (Rhizoctonia solani AG-1; 2 ppm): 95% | RSB control value (C.V.) (Rhizoctonia solani AG-1; 10 ppm): 100% | RSB control value (C.V.) (Rhizoctonia solani AG-1; 50 ppm): 100% | RSB control value (C.V.) (Rhizoctonia solani AG-1; 100 ppm): 100%
